US8173636B2, “Hydroxylthienoquinolones and related compounds as anti-infective agents” (Achillion Pharmaceuticals, Inc., priority 2009, dated 2012)
≈ marks a conversion by molar mass, not a printed value. Where two headings read alike, the source gives them in different places.

Assays:
S. aureus ATCC 29213 = experiment: Minimum inhibitory concentration (MIC) assay, broth microdilution, MSSA; type: cell-based; settings: Staphylococcus aureus, Table I
Protocol: (§1) The antimicrobial activity of the compounds of the invention may be evaluated by a number of methods, including the following visual minimum inhibitory concentration (MIC) assay. This assay determines the minimum concentration of compound required to inhibit growth of a bacterial strain.
(§2) Whole-cell antibacterial activity is determined by broth microdilution using conditions recommended by the NCCLS (see National Committee for Clinical Laboratory Standards. 2001. Performance standards for antimicrobial susceptibility testing: 11th informational supplement. Vol. 21, no. 1, M100-S11. National Committee for Clinical Laboratory Standards, Wayne, Pa.). Test compounds are dissolved in DMSO and diluted 1:50 in Mueller-Hinton II broth (Becton-Dickinson) to produce a 256 μg/ml stock solution. In a 96-well microtiter plate, the compound solution is serially two-fold diluted in Mueller-Hinton II broth. After the compounds are diluted, a 50 μl aliquot of the test organism (˜1×10^6 cfu/mL) is added to each well of the microtiter plate. The final test concentrations ranges from 0.125-128 μg/mL. Inoculated plates are incubated in ambient air at 37° C. for 18 to 24 hours. The organisms selected for testing included laboratory strains S. aureus ATCC 29213 and E. coli ATCC 25922 (strains purchased from American Type Culture Collection, Manassas, Va.) m, S. aureus FQR700699, and Paeruginosa 27853. The minimum inhibitory concentration (MIC) is determined as the lowest concentration of compound that inhibited visible growth of the test organism.

[1] = tested on: fluoroquinolone-resistant S. aureus ATCC 700699; experiment: Minimum inhibitory concentration (MIC) assay, broth microdilution, MRSA; type: cell-based; settings: Staphylococcus aureus
Protocol: as §1, §2

Hep2 = experiment: Cell viability staining with Alamar Blue (compound cytotoxicity); type: cell-based, human; settings: Table II, comparison of R2 acetyl vs cyano
Protocol: To determine whether the microcidal effect observed against S. aureus and E. coli is specific to bacterial cells, compounds are screened for cell viability effects on several human cell types. Optimal cell density is first determined by plating cells in a 96-well plate standard sterile tissue culture plates in 100 μl media, 10% FBS at six cell densities from 500 cells/well to 15,000 cells/well. A cell free well containing only media is used as a control. Cells are incubated at 37° C. in a 5% CO2 incubator for 24 hours. 10% culture volume (10 ul) of Alamar Blue (Biosource, DAL1100, 100 mL) is then added. Cells are incubated at 37° C. in a 5% CO2 incubator and read in a Victor V plate reader, 544 nm excitation, 590 nm emission, at 3, 4, and 24 hours after the addition of Alamar Blue. The cell number vs. change in fluorescence is plotted to determine linearity of signal vs. cell number. The optimal density varies between 500-15,000 cells/well depending on the specific cell type. The optimal density is selected based on the highest number of cells that is still in the linear response range. Cells are plated at optimal cell density in a standard sterile tissue culture 96 well plate, and incubated at 37° C., O/N in a 5% CO2 incubator. 12 to 48 hours post-plating media is removed. The cells are washed 1 or 2 times with 1×PBS and replaced with fresh media containing the test compound in 1% DMSO. 24 to 72 hours after addition of compound, the media is removed, and the cells washed 1 to 2 times with 1×PBS. Fresh media containing 1/10 volume of Alamar Blue is then added. Plates are incubated 4 hours at 37° C. in a 5% CO2 incubator and read in a Victor V plate reader, 544 nm excitation, 590 nm emission. Compounds are diluted to 20 micromolar in 1% DMSO and media and screened in duplicate to obtain single concentration cytotoxicity data. Eight concentration points from 0.78 micromolar to 100 micromolar, run in duplicate, are used to determine cyclotoxicity CC50 values. Cells with 1% DMSO and media are used as a negative control, compounds having a known CC50 against a particular cell type are used as positive controls. The change in fluorescence vs. concentration of test compound is plotted to determine the cytotoxicity of the compound.

[2] = Table II, comparison of R2 acetyl vs cyano, read-out: MRSA
[3] = fluoroquinolone-resistant S. aureus ATCC 700699, Table I, read-out: MRSA MIC

SMILES | MIC (S. aureus ATCC 29213) [µg/mL] | MIC [1, 2] [µg/mL] | MIC [1, 3] [µg/mL] | Cytoxicity (Hep2) [µM]
COc1c(N2CC[C@@H](CN)C2)c(F)cc2c(=O)c3c(O)c(C#N)sc3n(C3CC3)c12 [Cmp 59, (S)-7-(3-(aminomethyl)pyrrolidin-1-yl)-9-cyclopropyl-6-fluoro-3-hydroxyl-8-methoxy-4-oxo-dihydrothieno[2,3-b] quinoline-2-carbonitrile] | 0.02 (≈ 0.0467 µM) | 0.03 (≈ 0.07 µM) | < 0.03 | 0.06
COc1c(N2CC[C@@H](C(C)(C)N)C2)c(F)cc2c(=O)c3c(O)c(C(C)=O)sc3n(C3CC3)c12 [Cmp 58, (R)-2-acetyl-7-(3-(2-aminopropan-2-yl)pyrrolidin-1-yl)-9-cyclopropyl-6-fluoro-3-hydroxyl-8-methoxythieno [2,3-b]quinolin-4(9H)-one] | 0.13 (≈ 0.275 µM) | 0.25 (≈ 0.528 µM) | 0.25 (≈ 0.528 µM) | 20
COc1c(N2CCCC(CN)C2)c(F)cc2c(=O)c3c(O)c(C#N)sc3n(C3CC3)c12 (centres unmarked) [Cmp 63, 7-(3-(aminomethyl)piperidin-1-yl)-9-cyclopropyl-6-fluoro-3-hydroxyl-8-methoxy-4-oxo-dihydrothieno[2,3-b] quinoline-2-carbonitrile] | 0.03 (≈ 0.0678 µM) | 0.13 (≈ 0.294 µM) | 0.13 (≈ 0.294 µM) | 0.4
COc1c(N2CCNCC2)c(F)cc2c(=O)c3c(O)c(C(C)=O)sc3n(C3CC3)c12 [Cmp 57, 2-acetyl-9-cyclopropyl-6-fluoro-3-hydroxyl-8-methoxy-7-(piperazin-1-yl)thieno[2,3-b]quinolin-4(9H)-one] | 0.25 (≈ 0.579 µM) | 1 (≈ 2.32 µM) | 1 (≈ 2.32 µM) | 57
COc1c(N2CC[C@@H](C(C)(C)N)C2)c(F)cc2c(=O)c3c(n(C4CC4)c12)SC(C#N)C3=O (stereo partly drawn) [Cmp 10, (R)-7-(3-(2-aminopropan-2-yl)pyrrolidin-1-yl)-9-cyclopropyl-6-fluoro-3-hydroxyl-8-methoxy-4-oxo-4,9-dihydrothieno [2,3-b]quinoline-2-carbonitrile] | – | 0.09 (≈ 0.197 µM) | – | 2
COc1c(N2CCNCC2)c(F)cc2c(=O)c3c(n(C4CC4)c12)SC(C#N)C3=O (centres unmarked) [Cmp 9, 9-cyclopropyl-6-fluoro-3-hydroxyl-8-methoxy-4-oxo-7-(piperazin-1-yl)-4,9-dihydrothieno[2,3-b]quinoline-2-carbonitrile] | – | 0.75 (≈ 1.81 µM) | – | 9
COc1c(N2CC[C@@H](C(C)(C)NCCC#N)C2)c(F)cc2c(=O)c3c(n(C4CC4)c12)SC(C#N)C3=O (stereo partly drawn) [Cmp 49, 7-((R)-3-(2-(2-cyanoethylamino)propan-2-yl)pyrrolidin-1-yl)-9-cyclopropyl-6-fluoro-8-methoxy-3,4-dioxo-2,3,4,9-tetrahydrothieno[2,3-b]quinoline-2-carbonitrile] | 0.06 (≈ 0.118 µM) | – | 0.5 (≈ 0.981 µM) | –
COc1c(N2CCCC(C(N)=O)C2)c(F)cc2c(=O)c3c(O)c(C#N)sc3n(C3CC3)c12 (centres unmarked) [Cmp 37, 1-(2-cyano-9-cyclopropyl-6-fluoro-3-hydroxyl-8-methoxy-4-oxo-4,9-dihydrothieno[2,3-b]quinolin-7-yl)piperidine-3-carboxamide] | 0.03 (≈ 0.0657 µM) | – | 0.25 (≈ 0.548 µM) | –
COc1c(N2CC[C@@H](CN)C2)c(F)cc2c(=O)c3c(O)c(C(C)=O)sc3n(C3CC3)c12 [Cmp 60, (S)-2-acetyl-7-(3-(aminomethyl)pyrrolidin-1-yl)-9-cyclopropyl-6-fluoro-3-hydroxyl-8-methoxythieno [2,3-b]quinolin-4(9H)-one] | 0.06 (≈ 0.135 µM) | 0.06 (≈ 0.135 µM) | 0.06 (≈ 0.135 µM) | 11
COc1c(N2CC[C@@H](C(C)(C)N)C2)c(F)cc2c(=O)c3c(O)c(C(N)=O)sc3n(C3CC3)c12 [Cmp 32, (R)-7-(3-(2-aminopropan-2-yl)pyrrolidin-1-yl)-9-cyclopropyl-6-fluoro-3-hydroxyl-8-methoxy-4-oxo-4,9-dihydrothieno [2,3-b]quinoline-2-carboxamide] | 0.13 (≈ 0.274 µM) | – | 0.5 (≈ 1.05 µM) | –
COc1c(N2CC[C@@H]([C@H](C)N(C)C)C2)c(F)cc2c(=O)c3c(O)c(C#N)sc3n(C3CC3)c12 [Cmp 33, 9-cyclopropyl-7-((R)-3-((S)-1-(dimethylamino)ethyl)pyrrolidin-1-yl)-6-fluoro-3-hydroxyl-8-methoxy-4-oxo-4,9-dihydrothieno [2,3-b]quinoline-2-carbonitrile] | 0.06 (≈ 0.128 µM) | – | 0.5 (≈ 1.06 µM) | –
COc1c(N2CCCC(CN)C2)c(F)cc2c(=O)c3c(O)c(C(C)=O)sc3n(C3CC3)c12 (centres unmarked) [Cmp 64, 2-acetyl-7-(3-(aminomethyl)piperidin-1-yl)-9-cyclopropyl-6-fluoro-3-hydroxyl-8-methoxythieno [2,3-b]quinolin-4(9H)-one] | 0.13 (≈ 0.283 µM) | 0.25 (≈ 0.544 µM) | 0.25 (≈ 0.544 µM) | 19
COc1c(N2CCC[C@H](N)C2)c(F)cc2c(=O)c3c(O)c(C#N)sc3n(C3CC3)c12 [Cmp 54, (S)-7-(3-aminopiperidin-1-yl)-9-cyclopropyl-6-fluoro-3-hydroxyl-8-methoxy-4-oxo-4,9-dihydrothieno[2,3-b] quinoline-2-carbonitrile] | 0.13 (≈ 0.303 µM) | – | 0.5 (≈ 1.17 µM) | –
COc1c(N2CCC(C(F)(F)F)CC2)c(F)cc2c(=O)c3c(n(C4CC4)c12)SC(C#N)C3=O (centres unmarked) [Cmp 43, 9-cyclopropyl-6-fluoro-8-methoxy-3,4-dioxo-7-(4-(trifluoromethyl)piperidin-1-yl)-2,3,4,9-tetrahydrothieno [2,3-b]quinoline-2-carbonitrile] | 1 (≈ 2.08 µM) | – | 8 (≈ 16.6 µM) | –
CCN[C@@H](C)[C@@H]1CCN(c2c(F)cc3c(=O)c4c(O)c(C#N)sc4n(C4CC4)c3c2OC)C1 [Cmp 30, 9-cyclopropyl-7-((R)-3-((S)-1-(ethylamino)ethyl)pyrrolidin-1-yl)-6-fluoro-3-hydroxyl-8-methoxy-4-oxo-4,9-dihydrothieno [2,3-b]quinoline-2-carbonitrile] | 0.03 (≈ 0.0638 µM) | – | 0.13 (≈ 0.276 µM) | –
N#Cc1sc2c(c1O)c(=O)c1cc(F)c(N3CCNCC3)cc1n2C1CC1 [Cmp 21, 9-cyclopropyl-6-fluoro-3-hydroxyl-4-oxo-7-(piperazin-1-yl)-4,9-dihydrothieno[2,3-b]quinoline-2-carbonitrile] | 0.13 (≈ 0.338 µM) | – | 2 (≈ 5.2 µM) | –
